This passage reports IC50 results from BindingDB's records for doi:10.1021/np500757w (University of California San Diego, 2015).

Molecules are shown by their SMILES.

For this experiment, the target named is Endoplasmic reticulum chaperone BiP (Homo sapiens, UniProt P11021). The experiment can be described thus: Inhibition of 2-deoxyglucose-induced GRP78 (unknown origin) expression transfected in human HT1080 cells by luciferase reporter gene assay. For orientation: Reporter assays use an easily measured gene product as a stand-in for the process of interest.
Chain of Endoplasmic reticulum chaperone BiP (P11021 whole entry): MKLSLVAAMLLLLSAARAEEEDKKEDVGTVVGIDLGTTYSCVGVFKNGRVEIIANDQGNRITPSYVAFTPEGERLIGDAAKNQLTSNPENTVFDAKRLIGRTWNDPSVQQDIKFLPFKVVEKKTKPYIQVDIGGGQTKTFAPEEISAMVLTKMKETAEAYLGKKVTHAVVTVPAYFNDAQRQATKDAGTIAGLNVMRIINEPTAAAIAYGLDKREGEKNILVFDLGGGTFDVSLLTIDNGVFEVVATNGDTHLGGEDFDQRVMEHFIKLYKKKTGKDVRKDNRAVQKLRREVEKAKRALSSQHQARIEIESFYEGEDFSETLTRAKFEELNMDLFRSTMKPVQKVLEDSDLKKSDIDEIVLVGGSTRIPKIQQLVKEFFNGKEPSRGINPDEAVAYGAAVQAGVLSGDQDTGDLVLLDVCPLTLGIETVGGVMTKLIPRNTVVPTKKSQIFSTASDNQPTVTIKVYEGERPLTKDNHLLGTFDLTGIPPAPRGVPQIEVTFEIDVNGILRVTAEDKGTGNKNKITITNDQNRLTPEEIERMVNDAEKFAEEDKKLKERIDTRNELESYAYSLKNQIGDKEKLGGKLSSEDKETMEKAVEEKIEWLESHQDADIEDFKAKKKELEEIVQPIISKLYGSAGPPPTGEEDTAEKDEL

One may read the IC50 as the midpoint of a concentration-inhibition curve. Lower therefore signals greater potency. For `CC/C1=C/[C@H](CO)C[C@@H](C)[C@H](O[C@H]2C[C@H](O)[C@H](O[C@@H]3O[C@@H](C)[C@H](O[C@H]4C[C@H](O)[C@H](O)[C@@H](C)O4)[C@@H](OC)[C@H]3O)[C@@H](C)O2)[C@H](C)CCC[C@]2(C)C=C(C)[C@H](C)C[C@]23OC(=O)C(=C3O)C(=O)[C@@]2(CC)[C@H]3[C@H](C=C(C)[C@@H]12)[C@@H](O)CC(=O)[C@@H]3C`, it took 300 nM to reach half-maximal inhibition (IC50).
